# Measurements published in patent US8524727B2, “Pyrimidine compound” (Astellas Pharma Inc., priority 2009, dated 2013).
# Assays:
# human CB2 = biological target: T1, human CB2 (Homo sapiens, UniProt P34972); test: Human CB2-mediated cyclic AMP (cAMP) production inhibition assay; assay type: cell-based; settings: 30 nM test substance, human CB2-expressing CHO cells, forskolin 0.5 μM, 30 minutes at room temperature; for inhibition at 0.03 µM: CHO, read-out: Inh (%): inhibitory rate of cAMP increase
# T1 construct: expressed in transfected cells; host or cells: CHO cells
# Protocol: The present test was performed using CHO cells expressing human CB2 (“Molecular Pharmacology”, 1995, vol. 48, p. 443-450).
# A suspension of human CB2-expressing CHO cells (2.5×10^3/mL), and an assay medium added with a test substance and forskolin (final concentration 0.5 μM) were mixed in the equivalent amounts, and incubated at room temperature for 30 minutes. Then, the cAMP concentration in the cell lysis solution obtained by the addition of a 0.6% Triton X-100 solution was measured using a cAMP kit (manufactured by Cisbio international). The assay medium includes an α-MEM medium manufactured by Invitrogen, supplemented with 0.02% CHAPS, 1 mM isobutylmethyl xanthine, and 0.5 mg/mL bovine serum albumin. As the cAMP concentration in the cell suspension without the addition of forskolin was set as a cAMP increase rate of 0% and the cAMP concentration in the cell suspension with the addition of forskolin was set as a cAMP increase rate of 100%, the inhibitory rate of the intracellular cAMP increase at 30 nM test substance was determined.
# In the table, Ex indicates Example Compound number below, and Inh indicates an inhibitory rate of cAMP increase.
# [1] = tested on: adjuvant-induced arthritis rats; test: Inhibitory effect on hind paw weight distribution in adjuvant-induced arthritis rats; assay type: in vivo; settings: orally administered, female Lewis rats
# Protocol: For the experiment, female Lewis rats (7-8 week old) were used. 50 μL of inactivated Mycobacterium tuberculosis H37 Ra (manufactured by DIFCO) suspended with liquid paraffin to 10 mg/mL was administered subcutaneously into the right hindlimb footpad. The test substance was orally administered next day, the weights of the left and right hind paws after an arbitrary time were measured using Incapasitance Tester (manufactured by Columbus Instruments), and the weight distribution between left and right was calculated. As the weight distribution of the group administered with the vehicle was set as the inhibitory rate of 0% and the weight distribution of the normal group was set as the inhibitory rate of 100%, the inhibitory rate of the test substance was calculated.
# In the table, Ex indicates Example Compound number below, Inh indicates an inhibitory rate of the weight distribution, and the description after to @ means the administration amount.
# T1 sequence (P34972 whole entry): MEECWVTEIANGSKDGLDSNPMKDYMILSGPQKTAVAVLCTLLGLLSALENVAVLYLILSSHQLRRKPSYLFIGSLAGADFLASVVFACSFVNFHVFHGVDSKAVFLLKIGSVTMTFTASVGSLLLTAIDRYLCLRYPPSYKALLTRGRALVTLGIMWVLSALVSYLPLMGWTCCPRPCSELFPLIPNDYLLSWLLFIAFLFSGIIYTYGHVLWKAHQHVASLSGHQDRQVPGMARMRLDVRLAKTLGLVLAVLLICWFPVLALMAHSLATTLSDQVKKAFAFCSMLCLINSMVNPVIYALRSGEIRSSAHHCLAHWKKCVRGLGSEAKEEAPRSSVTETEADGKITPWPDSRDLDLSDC
inhibition at 0.03 µM (human CB2),Structure (SMILES),other results
79%,O=C(c1cnc(NC23CC4CC(CC(C4)C2)C3)nc1C(F)(F)F)N1CCC(F)(F)CC1 [Example 45],
84%,CC(C)c1nc(N[C@@H]2C[C@H]3CC[C@@H]2C3)ncc1C(=O)N1CCOCC1 [Example 83],
74%,CC1(C)[C@@H]2CC[C@@]1(C)[C@@H](Nc1ncc(C(=O)N3CCS(=O)(=O)CC3)c(C(F)(F)F)n1)C2 [Example 106],
80%,O=C(c1cnc(NC23CC4(F)CC(F)(CC(F)(C4)C2)C3)nc1C(F)(F)F)N1CCS(=O)(=O)CC1 [Example 109],Inh (%): inhibitory rate of the weight distribution ([1]; 0.3 mpk): 35@0.3 mpk %
49%,O=C(c1cnc(N[C@H]2C[C@@H]3CC[C@H]2C3)nc1C(F)(F)F)N1CCS(=O)(=O)CC1 [Example 138],
70%,O=C(c1cnc(NC23CC4CC(CC(C4)C2)C3)nc1C(F)(F)F)N1CCOCC1 [Example 143],
75%,FC1(F)CCN(Cc2cnc(N[C@@H]3C[C@H]4CC[C@@H]3C4)nc2C(F)(F)F)CC1 [Example 161],

# Second part, the compound before the results:
Structure (SMILES),inhibition at 0.03 µM (human CB2),other results
CC1(C)CCN(c2ncc(C(=O)N3CCS(=O)(=O)CC3)c(C(F)(F)F)n2)c2ccccc21 [Example 55],63%,
CC(C)c1nc(N[C@@H]2C[C@H]3CC[C@@H]2C3)ncc1C(=O)N1CCOCC1 [Example 64],,Inh (%): inhibitory rate of the weight distribution ([1]; 0.1 mpk): 52@0.1 mpk %; Inh (%): inhibitory rate of cAMP increase (human CB2): 85%
O=C(c1cnc(N[C@@H]2C[C@H]3CC[C@@H]2C3)nc1C1CC1)N1CCS(=O)(=O)CC1 [Example 67],76%,
CC(C)(C)c1nc(N[C@@H]2C[C@H]3CC[C@@H]2C3)ncc1C(=O)N1CCOCC1 [Example 72],99%,Inh (%): inhibitory rate of the weight distribution ([1]; 0.1 mpk): 40@0.1 mpk %
CC(C)c1nc(N[C@H]2C[C@@H]3CC[C@H]2C3)ncc1C(=O)N1CCOCC1 [Example 79],74%,
O=C(c1cnc(NC23CC4CC(CC(O)(C4)C2)C3)nc1C(F)(F)F)N1CC(F)(F)C(F)(F)C1 [Example 88],76%,
O=C(c1cnc(N[C@@H]2C[C@H]3CC[C@@H]2C3)nc1C(F)(F)F)N1CCS(=O)(=O)CC1 [Example 103],67%,Inh (%): inhibitory rate of the weight distribution ([1]; 0.3 mpk): 41@0.3 mpk %
O=C(c1cnc(NC23CCC(CC2)CC3)nc1C(F)(F)F)N1CCS(=O)(=O)CC1 [Example 122],70%,Inh (%): inhibitory rate of the weight distribution ([1]; 0.1 mpk): 45@0.1 mpk %
O=C(c1cnc(N[C@@H]2C[C@H]3CC[C@@H]2C3)nc1C(F)(F)F)N1CCS(=O)(=O)CC1 [Example 133],,Inh (%): inhibitory rate of cAMP increase (human CB2): 80%
